Reference: patent US7638547B2, “Cis-alkoxy-substituted spirocyclic 1H-pyrrolidine-2,4-dione derivatives serving as pesticides” (Bayer CropScience AG, priority 2002, dated 2009)

Columns and labels:
[1] = system: greenhouse red spider mite (Tetranychus urticae); assay: Tetranychus Test, OP-resistant/spray treatment (Example I); assay type: in vivo; conditions: 100 ppm active compound, bean leaf discs sprayed, OP-resistant
Protocol: Solvents: 78 parts by weight of acetone
• 1.5 parts by weight of dimethylformamide Emulsifier: 0.5 part by weight of alkylaryl polyglycol ether
After the desired period of time, the activity in % is determined.

[2] = system: caterpillars of the armyworm (Spodoptera frugiperda); assay: Spodoptera frugiperda Test (Example H); assay type: in vivo; conditions: 100 ppm active compound, cabbage leaves dipped
Source text: (§1) Solvent: 7 parts by weight of dimethylformamide

[3] = system: larvae of the mustard beetle (Phaedon cochleariae); assay: Phaedon Larvae Test (Example G); conditions: 100 ppm active compound, cabbage leaves dipped
[4] = system: cotton aphid (Aphis gossypii); assay: Aphis gossypii Test (Example A); assay type: in vivo; conditions: 20 ppm active compound, cotton leaves dipped
Source text: as §1

[5] = system: larvae of the mustard beetle (Phaedon cochleariae); assay: Phaedon Larvae Test (Example C); conditions: cabbage leaves dipped
[6] = system: Heliothis virescens caterpillars; assay: Heliothis virescens Test (Example B); assay type: in vivo; conditions: 500 ppm active compound, soybean shoots dipped
Source text: as §1

[7] = system: caterpillars of the diamondback moth (Plutella xylostella/resistant strain); assay: Plutella Test, resistant strain (Example D); assay type: in vivo; conditions: 4 ppm active compound, cabbage leaves dipped
Source text: as §1

[8] = system: peach aphid (Myzus persicae); assay: Myzus Test (Example F); assay type: in vivo; conditions: 4 ppm active compound, cabbage leaves dipped
Source text: as §1

[9] = system: greenhouse red spider mite (Tetranychus urticae); assay: Tetranychus Test, OP-resistant/dip treatment (Example J); assay type: in vivo; conditions: 4 ppm active compound, bean plants dipped, OP-resistant

## CCOC1CCC2(CC1)NC(=O)C(c1cc(C)ccc1Cl)=C2OC(=O)C(C)C (stereo not drawn)
[1]
  Kill rate in % after 4^d: 70%

## CO[C@H]1CC[C@]2(CC1)NC(=O)C(c1cc(C)ccc1C)=C2O [Example I-a-1]
[2]
  Kill rate in % after 7^d: 50%
[3]
  Kill rate in % after 7^d: 100%

## CCOC(=O)OC1=C(c2cc(C)ccc2C)C(=O)N[C@]12CC[C@@H](OC)CC2 [Example I-c-1]
[4]
  Kill rate in % after 6^d: 90%
[5]; 20 ppm active compound
  Kill rate in % after 7^d: 80%
[5]; 100 ppm active compound
  Kill rate in % after 7^d: 100%

## CCOC(=O)OC1=C(c2cc(C)ccc2Br)C(=O)N[C@]12CC[C@@H](OC)CC2 [Example I-c-2]
[6]
  Kill rate in % after 6^d: 100%
[7]
  Kill rate in % after 6^d: 100%

## CCOC(=O)OC1=C(c2cc(Br)ccc2C)C(=O)N[C@]12CC[C@@H](OC)CC2 [Example I-c-4]
[8]
  Kill rate in % after 6^d: 50%
[2]
  Kill rate in % after 7^d: 20%
[9]
  Kill rate in % after 7^d: 40%
[3]
  Kill rate in % after 7^d: 25%
